Molecular target: T1, human recombinant HDAC6 (Homo sapiens, UniProt Q9UBN7)
T1 construct: purchased Calbiochem 382180
T1 sequence (Q9UBN7 1-1215): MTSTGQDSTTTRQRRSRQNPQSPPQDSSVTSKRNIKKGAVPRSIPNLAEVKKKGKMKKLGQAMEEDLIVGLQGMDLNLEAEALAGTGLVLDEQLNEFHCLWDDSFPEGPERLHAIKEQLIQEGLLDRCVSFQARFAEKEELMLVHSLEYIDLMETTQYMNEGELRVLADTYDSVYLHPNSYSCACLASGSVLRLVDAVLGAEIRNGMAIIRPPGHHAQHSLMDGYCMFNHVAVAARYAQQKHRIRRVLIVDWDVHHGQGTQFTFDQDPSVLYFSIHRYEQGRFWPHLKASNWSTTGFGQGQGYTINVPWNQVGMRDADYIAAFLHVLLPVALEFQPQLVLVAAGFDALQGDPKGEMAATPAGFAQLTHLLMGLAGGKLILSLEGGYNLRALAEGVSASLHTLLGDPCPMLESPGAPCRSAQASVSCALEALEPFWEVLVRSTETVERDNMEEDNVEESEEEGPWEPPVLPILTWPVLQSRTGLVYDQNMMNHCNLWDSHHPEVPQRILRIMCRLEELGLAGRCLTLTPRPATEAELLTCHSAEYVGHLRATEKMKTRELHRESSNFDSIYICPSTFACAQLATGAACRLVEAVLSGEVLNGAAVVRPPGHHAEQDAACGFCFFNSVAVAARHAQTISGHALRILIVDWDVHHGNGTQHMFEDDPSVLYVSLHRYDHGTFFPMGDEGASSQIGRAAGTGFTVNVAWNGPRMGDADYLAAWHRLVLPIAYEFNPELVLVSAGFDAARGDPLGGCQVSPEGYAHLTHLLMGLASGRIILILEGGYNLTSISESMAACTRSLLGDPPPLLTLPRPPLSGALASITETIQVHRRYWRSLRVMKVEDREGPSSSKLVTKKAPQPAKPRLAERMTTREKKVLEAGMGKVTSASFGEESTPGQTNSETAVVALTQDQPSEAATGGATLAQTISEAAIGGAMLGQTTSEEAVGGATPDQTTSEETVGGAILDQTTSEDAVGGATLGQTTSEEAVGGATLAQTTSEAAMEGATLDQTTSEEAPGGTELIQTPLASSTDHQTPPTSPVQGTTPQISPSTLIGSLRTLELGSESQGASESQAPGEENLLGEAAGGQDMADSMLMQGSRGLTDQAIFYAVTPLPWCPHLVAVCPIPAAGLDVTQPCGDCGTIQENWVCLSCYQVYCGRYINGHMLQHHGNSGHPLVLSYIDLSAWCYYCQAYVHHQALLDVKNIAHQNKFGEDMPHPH
Assay: HDAC6 enzyme activity inhibition assay (HDAC Fluorimetric Drug Discovery Kit)
Assay type: biochemical
Details: for HDAC6 selectivity (fold): HDAC6 over HDAC1; for IC50: human recombinant HDAC6, same protocol as HDAC1, read-out: HDAC6
How it was run: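 Human recombinant HDAC1 or HDAC6 (0.3 μg) reacted with 10 μM Fluor de Lys-SIRT1 substrate and 5-fold compound dilutions for 60 min at 30 °C. Developer II added for 30 min, fluorescence read at Ex 360/Em 460; IC50 calculated from the readings.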

HDAC6 selectivity (fold) | IC50 | Structure (SMILES)
33 fold | 304 nM | O=C(N1CCS(=O)(=O)CC1)N(Cc1ccc(-c2nnc(C(F)(F)F)o2)cc1)c1ccccn1 [Compound 21409, N-(pyridin-2-yl)-N-(4-(5-(trifluoromethyl)-1,3,4-oxadiazol-2-yl)benzyl)thiomorpholine-4-carboxamide 1,1-dioxide]
12 fold | 840 nM | O=C(N1CCS(=O)(=O)CC1)N(Cc1ccc(-c2nnc(C(F)(F)F)o2)cc1Cl)c1ccccc1 [Compound 21410, N-(2-chloro-4-(5-(trifluoromethyl)-1,3,4-oxadiazol-2-yl)benzyl)-N-phenylthiomorpholine-4-carboxamide 1,1-dioxide]
5 fold | 2150 nM | O=C(N1CCS(=O)(=O)CC1)N(Cc1ccc(-c2nnc(C(F)F)o2)cc1Cl)c1ccccc1 [Compound 21411, N-(2-chloro-4-(5-(difluoromethyl)-1,3,4-oxadiazol-2-yl)benzyl)-N-phenylthiomorpholine-4-carboxamide 1,1-dioxide]
21 fold | 470 nM | O=C(N1CCS(=O)(=O)CC1)N(Cc1ccc(-c2nnc(C(F)(F)F)o2)cc1)c1ccc(C(F)(F)F)cc1 [Compound 21412, N-(4-(5-(trifluoromethyl)-1,3,4-oxadiazol-2-yl)benzyl)-N-(4-(trifluoromethyl)phenyl)thiomorpholine-4-carboxamide 1,1-dioxide]
41 fold | 246 nM | O=C(N1CCS(=O)(=O)CC1)N(Cc1ccc(-c2nnc(C(F)(F)F)o2)cc1)c1ccc(Br)cc1 [Compound 21413, N-(4-bromophenyl)-N-(4-(5-(trifluoromethyl)-1,3,4-oxadiazol-2-yl)benzyl)thiomorpholine-4-carboxamide 1,1-dioxide]
143 fold | 70 nM | CN1CC2(CCN(C(=O)N(Cc3ccc(-c4nnc(C(F)(F)F)o4)cc3)c3ccccc3)CC2)C1 [Compound 21420, 2-Methyl-N-phenyl-N-(4-(5-(trifluoromethyl)-1,3,4-oxadiazol-2-yl)benzyl)-2,7-diazaspiro[3.5]nonane-7-carboxamide]
95 fold | 105 nM | CC(=O)N1CCCN(C(=O)N(Cc2ccc(-c3nnc(C(F)(F)F)o3)cc2)c2ccccc2)CC1 [Compound 21422, 4-Acetyl-N-phenyl-N-(4-(5-(trifluoromethyl)-1,3,4-oxadiazol-2-yl)benzyl)-1,4-diazepane-1-carboxamide]
377 fold | 26.5 nM | CN1CCCN(C(=O)N(Cc2ccc(-c3nnc(C(F)F)o3)cc2F)c2ccccc2)CC1 [Compound 21423, N-(4-(5-(difluoromethyl)-1,3,4-oxadiazol-2-yl)-2-fluorobenzyl)-4-methyl-N-phenyl-1,4-diazepane-1-carboxamide]

Second part, the compound before the results:

Structure (SMILES) | HDAC6 selectivity (fold) | IC50
O=C(N1CCN(c2ccccn2)CC1)N(Cc1ccc(-c2nnc(C(F)(F)F)o2)cc1)c1ccccc1 [Compound 21403, N-phenyl-4-(pyridin-2-yl)-N-(4-(5-(trifluoromethyl)-1,3,4-oxadiazol-2-yl)benzyl)piperazine-1-carboxamide] | 30 fold | 334 nM
CCOC(=O)CN1[C@H](C)CN(C(=O)N(Cc2ccc(-c3nnc(C(F)(F)F)o3)cc2)c2ccccc2)C[C@@H]1C [Compound 21404, Ethyl 2-((2S,6R)-2,6-dimethyl-4-(phenyl(4-(5-(trifluoromethyl)-1,3,4-oxadiazol-2-yl)benzyl)carbamoyl)piperazin-1-yl)acetate] | 40 fold | 247 nM
O=C(N1CCOCC1)N(Cc1ccc(-c2nnc(C(F)(F)F)o2)cc1)c1cccc(C(F)(F)F)c1 [Compound 21405, N-(4-(5-(trifluoromethyl)-1,3,4-oxadiazol-2-yl)benzyl)-N-(3-(trifluoromethyl)phenyl)morpholine-4-carboxamide] | 28 fold | 354 nM
O=C(N1CCOCC1)N(Cc1ccc(-c2nnc(C(F)(F)F)o2)cc1)c1ccc(C(F)(F)F)cc1 [Compound 21406, N-(4-(5-(trifluoromethyl)-1,3,4-oxadiazol-2-yl)benzyl)-N-(4-(trifluoromethyl)phenyl)morpholine-4-carboxamide] | 16 fold | 619 nM
O=C(N1CCOCC1)N(Cc1ccc(-c2nnc(C(F)(F)F)o2)cc1)c1cccc(F)c1 [Compound 21407, N-(3-fluorophenyl)-N-(4-(5-(trifluoromethyl)-1,3,4-oxadiazol-2-yl)benzyl)morpholine-4-carboxamide] | 71 fold | 140 nM
O=C(N1CCOCC1)N(Cc1ccc(-c2nnc(C(F)(F)F)o2)cc1)c1cccc(C(F)(F)F)n1 [Compound 21408, N-(4-(5-(trifluoromethyl)-1,3,4-oxadiazol-2-yl)benzyl)-N-(6-(trifluoromethyl)pyridin-2-yl)morpholine-4-carboxamide] | 14 fold | 706 nM
O=C(N1CCOCC1)N(Cc1ccc(-c2nnc(C(F)(F)F)o2)cc1)c1ccc(F)cc1F [Compound 21414, N-(2,4-difluorophenyl)-N-(4-(5-(trifluoromethyl)-1,3,4-oxadiazol-2-yl)benzyl)morpholine-4-carboxamide] | 79 fold | 126 nM
Cc1ccc(N(Cc2ccc(-c3nnc(C(F)(F)F)o3)cc2)C(=O)N2CCOCC2)c(F)c1 [Compound 21415, N-(2-fluoro-4-methylphenyl)-N-(4-(5-(trifluoromethyl)-1,3,4-oxadiazol-2-yl)benzyl)morpholine-4-carboxamide] | 33 fold | 299 nM
CC(C)(C)OC(=O)N1CC2(CCN(C(=O)N(Cc3ccc(-c4nnc(C(F)(F)F)o4)cc3)c3ccccc3)CC2)C1 [Compound 21416, Ten-butyl 7-(phenyl(4-(5-(trifluoromethyl)-1,3,4-oxadiazol-2-yl)benzyl)carbamoyl)-2,7-diazaspiro[3.5]nonane-2-carboxylate] | 6 fold | 1590 nM
O=C(N1CCC2(CC1)CNC2)N(Cc1ccc(-c2nnc(C(F)(F)F)o2)cc1)c1ccccc1 [Compound 21417, N-phenyl-N-(4-(5-(trifluoromethyl)-1,3,4-oxadiazol-2-yl)benzyl)-2,7-diazaspiro[3.5]nonane-7-carboxamide] | 143 fold | 70 nM
CC(=O)N1CC2(CCN(C(=O)N(Cc3ccc(-c4nnc(C(F)(F)F)o4)cc3)c3ccccc3)CC2)C1 [Compound 21418, 2-Acetyl-N-phenyl-N-(4-(5-(trifluoromethyl)-1,3,4-oxadiazol-2-yl)benzyl)-2,7-diazaspiro[3.5]nonane-7-carboxamide] | 65 fold | 154 nM
CS(=O)(=O)N1CC2(CCN(C(=O)N(Cc3ccc(-c4nnc(C(F)(F)F)o4)cc3)c3ccccc3)CC2)C1 [Compound 21419, 2-(Methylsulfonyl)-N-phenyl-N-(4-(5-(trifluoromethyl)-1,3,4-oxadiazol-2-yl)benzyl)-2,7-diazaspiro[3.5]nonane-7-carboxamide] | 130 fold | 77 nM
CCN1CC2(CCN(C(=O)N(Cc3ccc(-c4nnc(C(F)(F)F)o4)cc3)c3ccccc3)CC2)C1 [Compound 21421, 2-Ethyl-N-phenyl-N-(4-(5-(trifluoromethyl)-1,3,4-oxadiazol-2-yl)benzyl)-2,7-diazaspiro[3.5]nonane-7-carboxamide] | 149 fold | 67 nM
O=C(N1CCOCC1)N(Cc1ccc(-c2nnc(C(F)(F)F)o2)cc1)c1ccccn1 [Compound 21424, N-(pyridin-2-yl)-N-(4-(5-(trifluoromethyl)-1,3,4-oxadiazol-2-yl)benzyl)morpholine-4-carboxamide] | 54 fold | 184 nM
O=C(N1CCOCC1)N(Cc1ccc(-c2nnc(C(F)(F)F)o2)cc1)c1ncccn1 [Compound 21425, N-(pyrimidin-2-yl)-N-(4-(5-(trifluoromethyl)-1,3,4-oxadiazol-2-yl)benzyl)morpholine-4-carboxamide] | 77 fold | 130 nM

Reference: US10717716B2, “1,3,4-oxadiazole derivative compounds as histone deacetylase 6 inhibitor, and the pharmaceutical composition comprising the same” (Chong Kun Dang Pharmaceutical Corp., priority 2015, dated 2020)
